Drawing on US5753648A, “Tricyclic benzazepine vasopressin antagonists” (American Cyanamid Company, priority 1996, dated 1998), this text covers IC50 and inhibition for 1 compound.

Test [1] deals with T1, Vasopressin V1 receptor subtype in Human Platelet Membranes (Homo sapiens, UniProt P37288).
T1 construct: Frozen platelet rich plasma (PRP), received from the Hudson Valley Blood Services, are thawed to room temperature; tissue Hudson Valley Blood Services; host or cells: human platelets (platelet rich plasma)
Kind of test: Binding to Vasopressin V1 receptor subtype in Human Platelet Membranes. As to conditions: * V1 receptor subtype in human platelet. The protocol: Radioligand Binding Experiments with Human Platelet Membranes
Platelet Source: Hudson Valley Blood Services,
Westchester Medical Center, Valhalla, N.Y.
Platelet Membrane Preparation
Frozen platelet rich plasma (PRP), received from the Hudson Valley Blood Services, are thawed to room temperature. The tubes containing the PRP are centrifuged at 16,000×g for 10 min. at 4° C. and the supernatant fluid discarded. The platelets resuspended in an equal volume of 50.0 mM Tris.HCl, pH 7.5 containing 120 mM NaCl and 20.0 mM EDTA. The suspension is recentrifuged at 16,000×g for 10 min. This washing step is repeated one more time. The wash discarded and the lysed pellets homogenized in low ionic strength buffer of Tris.HCl, 5.0 mM, pH 7.5 containing 5.0 mM EDTA. The homogenate is centrifuged at 39,000×g for 10 min. The resulting pellet is resuspended in Tris.HCl buffer, 70.0 mM, pH 7.5 and recentrifuged at 39,000×g for 10 min. The final pellet is resuspended in 50.0 mM Tris.HCl buffer pH 7.4 containing 120 mM NaCl and 5.0 mM KCl to give 1.0-2.0 mg protein per ml of suspension.
Binding to Vasopressin V1 receptor subtype in Human Platelet Membranes
In wells of 96 well format microtiter plate, add 100 μl of 50.0 mM Tris.HCl buffer containing 0.2% BSA and a mixture of protease inhibitors (aprotinin, leupeptin etc.). Then add 20 μl of [^3 H]Ligand (Manning or Arg^8 Vasopressin), to give final concentrations ranging from 0.01 to 10.0 nM. Initiate the binding by adding 80.0 μl of platelet suspension (approx. 100 μg protein). Mix all reagents by pipetting the mixture up and down a few times. Non specific binding is measured in the presence of 1.0 μM of unlabeled ligand (Manning or Arg^8 Vasopressin). Let the mixture stand undisturbed at room temperature for ninety (90) min. Upon this time, rapidly filter off the incubate under vacuum suction over GF/B filters, using a Brandel® Harvester. Determine the radioactivity caught on the filter disks by the addition of liquid scintillant and counting in a liquid scintillator.

Another test deals with T2, oxytocin receptors (Rattus norvegicus, UniProt P70536).
T2 sequence (P70536 1-388): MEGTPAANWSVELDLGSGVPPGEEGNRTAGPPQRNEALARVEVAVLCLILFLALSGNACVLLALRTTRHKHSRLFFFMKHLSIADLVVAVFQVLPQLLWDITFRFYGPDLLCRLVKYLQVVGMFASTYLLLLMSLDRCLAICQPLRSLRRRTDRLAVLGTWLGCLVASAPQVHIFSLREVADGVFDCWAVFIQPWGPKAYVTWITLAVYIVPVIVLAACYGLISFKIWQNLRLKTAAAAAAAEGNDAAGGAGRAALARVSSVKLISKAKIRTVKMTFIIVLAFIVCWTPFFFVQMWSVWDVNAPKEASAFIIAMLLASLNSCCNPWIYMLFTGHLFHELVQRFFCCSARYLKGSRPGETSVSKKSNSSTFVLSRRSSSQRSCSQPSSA
Kind of test: Oxytocin Receptor Binding.

The next test has as its target Rat Hepatic V1 Receptors (Rattus norvegicus, UniProt P30560). Kind of test: Binding Assay to Rat Hepatic V1 Receptors. A digest of the protocol:
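Rat liver plasma membranes (20 μg protein, sucrose-gradient isolated) were incubated 120 min at room temperature with [3H]vasopressin (0.8 nM as added) in Tris-HCl buffer with MgCl2, BSA and protease inhibitors. Nonspecific binding was defined with unlabeled phenylalanylvasopressin. Bound radioactivity was collected by filtration and counted by scintillation, and IC50 was from competition analysis.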

Chain of Rat Hepatic V1 Receptors (P30560 whole entry): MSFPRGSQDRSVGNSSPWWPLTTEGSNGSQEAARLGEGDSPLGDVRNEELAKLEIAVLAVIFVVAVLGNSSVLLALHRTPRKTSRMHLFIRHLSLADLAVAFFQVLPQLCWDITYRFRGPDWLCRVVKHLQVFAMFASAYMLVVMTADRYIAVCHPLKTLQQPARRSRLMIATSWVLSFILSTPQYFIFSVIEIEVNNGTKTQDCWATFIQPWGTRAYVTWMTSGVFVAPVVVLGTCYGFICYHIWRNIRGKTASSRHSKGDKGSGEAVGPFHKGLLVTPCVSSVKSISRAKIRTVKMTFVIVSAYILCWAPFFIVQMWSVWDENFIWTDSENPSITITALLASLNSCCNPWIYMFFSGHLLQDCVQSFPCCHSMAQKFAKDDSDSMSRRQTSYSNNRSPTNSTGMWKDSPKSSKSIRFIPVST
T1 sequence (P37288 whole entry): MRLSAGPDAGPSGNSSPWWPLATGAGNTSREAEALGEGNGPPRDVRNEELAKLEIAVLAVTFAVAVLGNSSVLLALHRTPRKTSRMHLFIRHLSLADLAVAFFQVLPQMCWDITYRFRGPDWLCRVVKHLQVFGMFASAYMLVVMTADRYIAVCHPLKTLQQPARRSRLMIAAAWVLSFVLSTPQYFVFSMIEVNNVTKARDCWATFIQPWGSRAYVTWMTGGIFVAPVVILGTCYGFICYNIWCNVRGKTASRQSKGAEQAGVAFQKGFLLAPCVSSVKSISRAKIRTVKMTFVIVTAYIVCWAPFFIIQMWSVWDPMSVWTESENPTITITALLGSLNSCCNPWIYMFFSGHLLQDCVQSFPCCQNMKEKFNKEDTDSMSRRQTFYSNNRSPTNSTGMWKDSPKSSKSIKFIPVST
Protocol for oxytocin receptors: Female Sprague-Dawley rats weighing approximately 200-250 g are injected intramuscularly (i.m.) with 0.3 mg/kg of body weight of diethylstilbestrol (DES). The rats are sacrificed 18 hours later under pentobarbital anesthesia. The uteri are dissected out, cleaned of fat and connective tissues and rinsed in 50 ml of normal saline. The tissue pooled from six rats is homogenized in 50 ml of 0.01 mM Tris.HCl, containing 0.5 mM dithiothreitol and 1.0 mM EDTA, adjusted to pH 7.4, using a polytron at setting 6 with three passes of 10 sec each. The homogenate is passed through two (2) layers of cheesecloth and the filtrate centrifuged at 1000×g for 10 min. The clear supernatant is removed and recentrifuged at 165,000×g for 30 min. The resulting pellet containing the oxytocin receptors is resuspended in 50.0 mM Tris.HCl containing 5.0 mM MgCl2 at pH 7.4, to give a protein concentration of 2.5 mg/ml of tissue suspension. This preparation is used in subsequent binding assays with [^3 H]Oxytocin.
Binding of 3,5-[^3 H]Oxytocin ([^3 H]OT) to its receptors is done in microtiter plates using [^3 H]OT, at various concentrations, in an assay buffer of 50.0 mM Tris.HCl, pH 7.4 and containing 5.0 mM MgCl2, and a mixture of protease inhibitors: BSA, 0.1 mg; aprotinin, 1.0 mg; 1,10-phenanthroline, 2.0 mg; trypsin, 10.0 mg; and PMSF, 0.3 mg per 100 ml of buffer solution. Non-specific binding is determined in the presence of 1.0 uM unlabeled OT. The binding reaction is terminated after 60 min., at 220° C., by rapid filtration through glass fiber filters using a Brandel® cell harvester (Bio-medical Research and Development Laboratories, Inc., Gaithersburg, Md.). Competition experiments are conducted at equilibrium using 1.0 nM [^3 H]OT and varying the concentration of the displacing agents. The concentrations of agent displacing 50% of [^3 H]OT at its sites (IC50) are calculated by a computer assisted LUNDON-2 program (LUNDON SOFTWARE INC., Ohio, USA).

As to `Cc1ccc(F)cc1C(=O)Nc1ccc(C(=O)N2Cc3cccn3Cc3ccccc32)cn1` [Example 1, N-[5-(5H-Pyrrolo[2,1-c][1,4]benzodiazetin-10(11H)-ylcarbonyl)-2-pyridinyl]-5-fluoro-2-methylbenzamide], the IC50 (as a rule, the concentration that gives 50% inhibition) in test [1] was 20 nM; at oxytocin receptors (rat uterine membranes, [3H]oxytocin), 200 nM; on Rat Hepatic V1 Receptors, 33 nM. Further, the inhibition (as a rule, the percentage by which the read-out fell short of the control) at 10 µM at oxytocin receptors (dose 10 μM) stood at 92%.
